Data set [1] can be described thus: Hydrolysis of ester prodrugs in human plasma solutions (HPLC). The note with it: for half-life: pH 7.4; for kinetics (order) of hydrolysis in human plasma: 80% human plasma at 37° C., initial concentration about 10^-4 M. Here is the method:
Solutions of various derivatives of this invention in aqueous buffer solutions or 50-80% human plasma solutions (pH 7.4) were kept at 37° C. The initial concentration of the derivatives was in the range 3×10^-4 -10^-5 M. At various times an aliquot of the solutions was withdrawn and analyzed by HPLC for remaining derivative as well as for parent acid. For the plasma solutions the aliquot withdrawn was deproteinized with methanol, ethanol or acetonitrile and after centrifugation, the clear supernatant was injected on HPLC.
An HPLC method was used for the determination of the ester derivatives and their parent acids. In this method a reversed-phase LiChrosorb RP-8 column (250×4 mm) was eluted at ambient temperature with mixtures of methanol and 0.01M acetate buffer pH 5.0, methanol and 0.01M phosphate buffer pH 4.5 or methanol and 0.02M phosphate buffer pH 3.5. the composition of the eluant was adjusted for each compound in order to provide an appropriate retention time and separation of ester and the corresponding acid. The flow-rate was 0.6-1.6 ml/min and the column effluent was monitored spectrophotometrically at an appropriate wavelength. Quantitation of the compounds was done by measurement of the peak heights in relation to those of standards chromatographed under the same conditions.

Assay in data set [2]: not given
The source holds these as a separate data set.

Data set [3] in a line: Solubility in water or aqueous solutions. The settings on record: for solubility: water.
Data set [4] can be described thus: Oral bioavailability study in rabbits (plasma concentrations). The format is in vivo.

Converted amounts (≈) assume the structure as drawn. Structures can show the parent of a compound that is named as a salt. Where only a bound is given, the exact number is not on record here.

Experimental findings from US5073641A, “Prodrug derivatives of carboxylic acid drugs” (priority 1986, dated 1991) are described below.

By half-life is commonly meant the time needed for the level to fall by half in the phase considered. Turning to `COC(=O)c1ccc(O)cc1` [4-Hydroxybenzoic acid methyl ester, reference compound], in data set [1] (80% plasma), the half-life was greater than 3000 min.
Regarding `CCCCN(CCCC)C(=O)COC(=O)c1ccccc1` [Example 14], the “S, solubility in water” value amounted to 80 µg/mL.
Usually solubility stands for the concentration that dissolves in the medium under given conditions. Lower therefore signals little dissolved substance. Take `NC(=O)[C@@H]1CCCN1C(=O)COC(=O)c1ccccc1`: the half-life in data set [1] (50% plasma) worked out at 2.3 min. Also, the “log P (partition coefficient between octanol and water)” value (“log P” for short) in data set [2] turned out to be 0.20. Besides, in data set [3], the solubility was determined as 1500 µg/mL (≈ 5.43 mM).
Turning to `COC(=O)[C@@H]1CCCN1C(=O)COC(=O)c1ccccc1`, the half-life in data set [1] (50% plasma) stood at 1.9 min.
As to `CN(C)CC(=O)OCCN(C)C(=O)COC(=O)c1ccccc1` [R1=CH3, R2=CH2CH2OOCCH2N(CH3)2, n=1], the half-life in data set [1] (50% plasma) was 0.08 min. Besides, the solubility in data set [3] was greater than 200000 µg/mL.
As to `CC(C(=O)OCC(=O)N(C)C)c1ccc(-c2ccccc2)c(F)c1` (stereo not shown) [Example 58], the half-life in data set [1] (plasma) stood at 10.8 min.
On to `O=C(OCC(=O)N1CCC(O)CC1)c1ccccc1`, for which the half-life in data set [1] (50% plasma) worked out at 5.8 min.
`CN(CC(N)=O)C(=O)COC(=O)Cc1ccc(-c2ccccc2)cc1` [Example 57]: the half-life in data set [1] (plasma) turned out to be 2.1 min.
As for `COc1ccc2cc([C@H](C)C(=O)OCC(=O)N(CCO)CCO)ccc2c1` [Example 44, 2-[(+)-6-METHOXY-α-METHYL-2-NAPHTHALENEACETYLOXY]-N,N-(DI-β-HYDROXYETHYL)ACETAMIDE], in data set [3] (0.01M HCl, versus naproxen), the “solubility in 0.01M HCl relative to parent naproxen” value is “more than 20 -fold”. Further, in data set [4], the “absorption following oral administration” value was “efficiently absorbed” and the “conversion of prodrug to naproxen in vivo” value is reported as “rapidly converted back to naproxen in vivo”. In addition, the “plasma concentration of intact naproxen prodrug” value in data set [4] (equivalent of 4.8 mg/kg naproxen) is less than 100 ng/mL.
For `COCCN(CCOC)C(=O)COC(=O)c1ccccc1` [Example 23b], the half-life in data set [1] (50% plasma) was determined as 0.25 min.
As for `CC(C)CN(CC(C)C)C(=O)COC(=O)c1ccccc1` [Example 15], the half-life in data set [1] (50% plasma) was less than 1.5 min. Moreover, the concentration in solution in data set [3] (solubility) came to 81 µg/mL (≈ 0.278 mM).
Take `CCN(CC)C(=O)COC(=O)C(C)c1ccc(-c2ccccc2)c(F)c1` (stereo not shown) [Example 59]: in data set [1] (plasma), the half-life amounted to 4.7 min.
As for `COC(=O)CCC(=O)c1ccc(-c2ccccc2)cc1` [Fenbufen methyl ester, reference compound], the half-life in data set [1] (80% plasma) is 282 min.
For `O=C(OCC(=O)N1CCC1)c1ccccc1`, the half-life in data set [1] (50% plasma) stood at 0.83 min. The molecule also returned a solubility in data set [3] of 5400 µg/mL (≈ 24.6 mM).
The like results for `O=C(OCC(=O)N1CCCC1)c1ccccc1` were, in that order, 5.7 min and 6300 µg/mL (≈ 27 mM).
Regarding `C=CCN(CC=C)C(=O)COC(=O)c1ccccc1` [Example 13], the “S, solubility in water” value came to 710 µg/mL. The same molecule yielded a half-life in data set [1] (50% plasma) of 0.08 min. Besides, the “log P” value in data set [2] is 2.34.
For the molecule `CCN(CC)C(=O)COC(=O)[C@@H](C)c1ccc2cc(OC)ccc2c1` [Example 35, 2-[(+)-6-METHOXY-α-METHYL-2-NAPHTHALENEACETYLOXY]-N,N-[…]], in data set [1], the “kinetics (order) of hydrolysis in human plasma” value (“kinetics (order) of hydrolysis” below) was “first-order kinetics”.
As for `O=C(OCC(=O)N1CCCC1=O)c1ccccc1`, in data set [1] (50% plasma), the half-life was found to be 18 min. Moreover, the “log P” value in data set [2] stood at 1.83. In data set [3], this molecule gave a solubility of 490 µg/mL (≈ 1.98 mM).
Take `O=C(OCC(=O)N(CCO)CCO)c1ccccc1` [Example 17, 2-(benzoyloxy)-N-N-(di-β-hydroxyethyl)acetamide]: the “S, solubility in water” value is 720000 µg/mL. In data set [3], this molecule had a solubility greater than 700000 µg/mL.
Regarding `CCN(CC)C(=O)COC(=O)CC1=C(C)/C(=C/c2ccc([S+](C)[O-])cc2)c2ccc(F)cc21` (stereo not shown) [Example 73], in data set [1] (plasma), the half-life turned out to be 26 min.
With `CCN(CC)C(=O)COC(=O)C(C)c1cccc(C(=O)c2ccccc2)c1` (stereo not shown) [Example 56], the half-life in data set [1] (80% plasma) and in data set [1] (plasma) was 0.5 min throughout.
With `COc1ccc2c(c1)c(CC(=O)OCC(=O)N(C)CCO)c(C)n2C(=O)c1ccc(Cl)cc1` [Example 63], the half-life in data set [1] (plasma) was found to be 140 min.
On the same count and under the same terms, under `CCN(CC)C(=O)COC(=O)c1cc(-c2ccc(F)cc2F)ccc1O` [Example 70] stands 79 min; under `CCN(CCO)C(=O)COC(=O)c1ccccc1Nc1cccc(Cl)c1C` [Example 67], 3 min.
Turning to `CC(C(=O)OCC(=O)N(C)CC(N)=O)c1cccc(C(=O)c2ccccc2)c1` (stereo not shown) [Ketoprofen (R1=CH3, R2=CH2CONH2)], the “kinetics (order) of hydrolysis” value in data set [1] is reported as “first-order kinetics”. The half-life in data set [1] (plasma) amounted to 2.3 min.
For `CC(C(=O)OCC(=O)N(C)C)c1cccc(C(=O)c2ccccc2)c1` (stereo not shown) [Example 55], the half-life in data set [1] (plasma) is 1.1 min.
The same measure, in the same setting: under `CN(C)C(=O)COC(=O)c1ccccc1O` [Example 79] stands 0.08 min.
On to `CN(C)CCN(C)C(=O)COC(=O)c1ccccc1` [Example 23a], for which, in data set [1] (50% human plasma (pH 7.4) at 37° C.), the “t1/2, half-life of hydrolysis in 50% human plasma” value is 0.12 min. Further, the solubility in data set [3] was greater than 100000 µg/mL.
Consider `O=C(OCC(=O)N1CCOCC1)c1ccccc1`, for which the half-life in data set [1] (50% plasma) is 4.9 min. For the same molecule, the “log P” value in data set [2] was determined as 0.90. Further, in data set [3], the solubility came to 4200 µg/mL (≈ 16.8 mM).
Turning to `CN(CC(N)=O)C(=O)COC(=O)c1ccccc1O` [Example 37, 2-[2-HYDROXYBENZOYLOXY]-(N-METHYL-N-CARBAMOYLMETHYL)-ACETAMIDE], the half-life in data set [1] (plasma) stood at 0.33 min.
Turning to `CN1CCN(C(=O)COC(=O)c2ccccc2O)CC1` [Salicylic acid], in data set [1] (plasma), the half-life is 22 min.
Still for that read-out and setting: next, `CC(C)Cc1ccc(C(C)C(=O)OCC(=O)N(C)C)cc1` (stereo not shown) [Example 54]: 8.6 min; `Cc1c(Cl)cccc1Nc1ccccc1C(=O)OCC(=O)N(C)C` [Example 65]: 2.8 min.
As to `O=C(OCC(=O)N1CCCCC1)c1ccccc1`, the half-life in data set [1] (50% plasma) stood at 2.5 min. In addition, the “log P” value in data set [2] was 1.95. In addition, the concentration in solution in data set [3] (solubility) was 780 µg/mL (≈ 3.15 mM).
Regarding `COC(=O)Cc1c(C)n(C(=O)c2ccc(Cl)cc2)c2ccc(OC)cc12` [Indomethacin methyl ester, reference compound], the half-life in data set [1] (80% plasma) was 9000 min.
As for `COc1ccc2c(c1)c(CC(=O)OCC(=O)N(CCO)CCO)c(C)n2C(=O)c1ccc(Cl)cc1` [Example 64], the half-life in data set [1] (plasma) came out at 88 min.
Still for that read-out and setting: next, `COc1ccc2cc([C@H](C)C(=O)OCC(=O)N(C)CC(N)=O)ccc2c1` [Example 53]: 2.5 min.
As for `CN1CCN(C(=O)COC(=O)c2ccccc2)CC1`, the half-life in data set [1] (50% plasma) is 12.7 min. This molecule gave a solubility in data set [3] greater than 100000 µg/mL.
On to `CCN(CC)C(=O)COC(=O)Cc1ccc(C(=O)c2ccc(C)cc2)n1C` [Tolmetin (R1=C2H5, R2=C2H5)], for which the half-life in data set [1] (80% plasma) and in data set [1] (plasma) was 13.4 min in each case.
With `CCN(CC)C(=O)COC(=O)c1ccccc1O` [Example 80], the half-life in data set [1] (80% plasma) and in data set [1] (plasma) was 0.08 min throughout.
As for `CC(C)Cc1ccc(C(C)C(=O)OCC(=O)N(C)CC(=O)NCN2CCOCC2)cc1` (stereo not drawn) [Example 51, 2-[α-METHYL-4-(2-METHYLPROPYL)BENZENEACETYLOXY]-(N-METHYL-N-(N'-MORPHOLINOMETHYLCARBAMOYL)METHYL)ACETAMIDE HYDROCHLORIDE], the half-life in data set [1] (plasma) is 10.8 min.
As for `CCN(CC)C(=O)COC(=O)CCC(=O)c1ccc(-c2ccccc2)cc1` [Example 61], the half-life in data set [1] (80% plasma) and in data set [1] (plasma) was 3.8 min each time.
Turning to `CCOC(=O)[C@@H](N)Cc1ccc(O)cc1` [L-Tyrosine ethyl ester, reference compound], in data set [1] (80% plasma), the half-life came to 59 min.
For the molecule `O=C(OCC(=O)N1CCCCCC1)c1ccccc1`, the half-life in data set [1] (50% plasma) amounted to 1 min. For the same molecule, the solubility in data set [3] was determined as 750 µg/mL (≈ 2.87 mM).
`O=C(OCC(=O)N(C1CCCCC1)C1CCCCC1)c1ccccc1` [Example 20]: the half-life in data set [1] (50% plasma) was 407 min.
`CN(C)C(=O)CCOC(=O)c1ccccc1` [Example 21] displayed a half-life in data set [1] (50% plasma) of 5.6 min.
On the same count and under the same terms, under `CCN(C)C(=O)COC(=O)c1ccccc1` [Example 9] stands 0.1 min.
Consider `COC(=O)[C@H]1CC[C@H](CN)CC1` [Tranexamic acid methyl ester, reference compound], for which the half-life in data set [1] (80% plasma) is greater than 180 min.
For `COC(=O)Cc1ccc(C(=O)c2ccc(C)cc2)n1C` [Tolmetin methyl ester, reference compound], the half-life in data set [1] (80% plasma) is 1140 min.
As to `CN(C)C(=O)COC(=O)CCC(=O)c1ccc(-c2ccccc2)cc1` [Example 60], the half-life in data set [1] (plasma) turned out to be 9.2 min.
Consider `Br.CCN(CC)C(=O)COC(=O)[C@@H](N)Cc1ccccc1` [Example 38], for which the “kinetics (order) of hydrolysis” value in data set [1] was “first-order kinetics”.
For `COc1ccc2cc([C@H](C)C(=O)OCC(=O)N(C)C)ccc2c1` [Example 52], the half-life in data set [1] (plasma) stood at 1.5 min.
In the case of `CCN(CC)C(=O)COC(=O)c1ccccc1Nc1cccc(Cl)c1C` [Example 66], the half-life in data set [1] (80% plasma) and in data set [1] (plasma) was 5 min each time.
As to `CCOC(=O)c1ccc(N)cc1` [4-Aminobenzoic acid ethyl ester, reference compound], in data set [1] (80% plasma), the half-life was greater than 6000 min.
Turning to `CC1CCCC(C)N1C(=O)COC(=O)c1ccccc1` (stereo not shown), in data set [1] (50% plasma), the half-life came to 0.4 min. Moreover, in data set [3], the concentration in solution (solubility) was 150 µg/mL (≈ 0.545 mM).
In the case of `COC(=O)c1ccccc1Nc1cccc(Cl)c1C` [Tolfenamic acid methyl ester, reference compound], the half-life in data set [1] (80% plasma) was 6000 min.
In the case of `CC(C)Cc1ccc(C(C)C(=O)OCC(=O)N(C)CC(N)=O)cc1` (stereo not drawn) [Example 41, 2-[α-METHYL-4-(2-METHYLPROPYL)BENZENEACETYLOXY]-(N-METHYL-N-CARBAMOYLMETHYL)ACETAMIDE], in data set [1] (plasma), the half-life turned out to be 9.6 min.
